The values below come from BindingDB's records for patent US9611261 (Amgen, 2017).

For the assay, the target named is Cathepsin D (Homo sapiens, UniProt P07339). Briefly: In Vitro Enzymatic FRET Assay.

Molecules are shown by their SMILES. pIC50: −log10 of the molar value.

Sequence of Cathepsin D (P07339 65-162 limits assumed): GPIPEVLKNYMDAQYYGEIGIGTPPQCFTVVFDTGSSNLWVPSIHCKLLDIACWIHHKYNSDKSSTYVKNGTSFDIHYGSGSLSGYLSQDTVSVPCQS
Sequence of Cathepsin D (P07339 169-412 limits assumed): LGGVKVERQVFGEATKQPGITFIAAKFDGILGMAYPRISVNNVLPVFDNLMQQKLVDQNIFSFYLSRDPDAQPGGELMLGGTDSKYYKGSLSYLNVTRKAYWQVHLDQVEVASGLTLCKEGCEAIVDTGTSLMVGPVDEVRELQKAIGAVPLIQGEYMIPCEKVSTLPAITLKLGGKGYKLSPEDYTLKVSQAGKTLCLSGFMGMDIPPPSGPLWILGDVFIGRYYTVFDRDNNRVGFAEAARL
Experimental: Recombinant Cat D was expressed in CHO cells. The assay buffer for CathepsinD is 0.05 M citrate pH 3.5, 10% DMSO final, 5 mM CHAPS. […] The assays are effectively started by the addition of different FRET substrates (20 nM for Cat D) and the combination is incubated for one hour. The FRET assay is terminated with by addition of Tris buffer, which raises the pH to neutrality, and the fluorescence is determined. The FRET substrate is a peptide with commercially available fluorophore and quencher, on opposite sides of the BACE cleavage site. […] Proteolytic cleavage of the FRET substrate releases quenching of fluorescence (Cat D excitation 500 nm and emission 580 nm).

As a reminder, the pIC50 is the IC50 on a negative log10 scale, so that one unit is a factor of ten. In the case of `NC1=N[C@@](c2cc(NC(=O)c3cnc(CCC#CC4CC4)cn3)ccc2F)(C(F)F)[C@H]2C[C@H]2O1` [US9611261, Example 411], the pIC50 is 3.44. The compound `COc1cc(Cl)cnc1C(=O)Nc1ccc(F)c([C@@]2(CF)N=C(N)O[C@@H]3C[C@@H]32)c1` [US9611261, Example 297] showed a pIC50 of 3.08.
